Assay results reported in patent US6160166A, “Phosphonated agents and their antiangiogenic and antitumorigenic use” (priority 1999, dated 2000).
Entries after “also recorded” stand apart in the source; their conditions may differ.

Assays:
[1] = test system: chick chorioallantoic membrane (CAM); test: Chick egg chorioallantoic membrane (CAM) assay, 6-day, growing vessels: inhibition of angiogenesis; assay type: in vivo
Description: The purpose of this experiment was to test the ability of the phosphonic acid agents described above to inhibit angiogenesis. […]
Comparison of the inhibition of angiogenesis by 70 nmol of
suramin or a equimolar amount of a phosphonic acid agents in the
6-day and 11-day chick egg chorioallantoic (CAM) assay.

[2] = test system: human dermal Microvascular endothelial cells; test: Inhibition of bFGF-stimulated growth of human microvascular endothelial cells; assay type: cell-based; details: Homo sapiens, Endothelial cell; bFGF-stimulated; estimated from dose response curve
Experimental: Inhibition of cell growth was evaluated by measuring total protein and total DNA and the IC50 was estimated for each dose response curve.

Toxicity in vivo in mice = test: Toxicity in vivo in mice; set-up: species or system mouse
Experimental: Mice were injected intraperitoneally with 0-150 μM/kg body weight of the compounds to be tested, every other day for a total of five injections. The animals were carefully observed daily and weighed every third day for 28 days after the last injection. After the 28-day observation period, the animals were euthanized, blood was collected through cardiac puncture and the following tissues were subjected to histological investigation: heart, lungs, liver, spleen, adrenal gland, kidney, sciatic nerve, soleus muscle and brain.
It is clear from studies so far that compounds with equipotent or greater antitumor activity but with substantially lower toxicity are of considerable potential therapeutic value as an antitumorigenic or antiangiogenic agent. […] The animals were carefully observed daily and weighed every third day for 28 days after the last injection. After the 28-day observation period, the animals were euthanized, blood was collected through cardiac puncture and the following tissues were kept for histological investigation: heart, lungs, liver, spleen, adrenal gland, kidney, sciatic nerve, soleus muscle and brain.

HMEC-1 = HMEC-1 cell growth, total protein and total DNA; assay type: cell-based, human
Experimental: Logarithmically growing HMEC-1 or HMVEC-d cells are seeded at 2×10^4 cells/well in six well plates (Falcon) containing 2 ml of MCDB-131 medium supplemented with 5% fetal bovine serum (FBS) (Hyclone). […] After removal of medium, the cell layer is washed twice with 1 ml of cold Hanks balanced salt solution and the cells are dislodged by trypsinization. The cells are collected in microcentrifuge tubes and washed twice with 1 ml of cold phosphate-buffered saline, and then 1 ml of cold 10% trichloroacetic acid are added. Acid precipitable radioactivity are collected on a glass fiber filter (Whatman Grade GF/C) and the radioactivity is determined in a liquid scintillation spectrometer (Packard).

[3] = test system: porcine pulmonary artery macrovascular endothelial cell; test: Porcine pulmonary artery macrovascular endothelial cell growth, total protein and total DNA; assay type: cell-based
[4] = test system: human microvascular endothelial cells (HMEC-1, HMVEC-d); test: 3H-Leucine incorporation, inhibition of protein synthesis; assay type: cell-based; details: time course
Experimental: For each time period, six replicate flasks are set up. The volume of the medium MCDB-131 is 10 ml per flask. After incubation, the medium was replaced with fresh MCDB-131 containing […] of ^3 H-leucine and incubated for a further 90 min. TritonX-100 (240 μl, 10%) were then added to the contents of each flask and agitated. Trichloroacetic acid (TCA) (4 ml, 20%) is added, the contents mixed and the flasks left overnight at room temperature. After 24 hr, the flask contents was suspended by shaking, transferred to tubes and centrifuged at 4300 g. The pellets were resuspended in 10% TCA and recentrifuged and then resuspended in 3.0 ml of 0.1 M NaOH. Half of this volume was transferred to scintillation vials in 10 ml of Emulsifier Safe scintillation fluid (Packard) while the remaining 1.5 ml was used to assay DNA content (LaBarca and Paigen, 1980). The radioactive counts due to protein synthesized in the presence of ^3 H-leucine was normalized to counts/μg DNA. Protein synthesis by cells treated with the phosphonic acid agents are expressed relative to that of control cells as the percent of inhibition for each time of incubation.
After this period of time, the rate steadily declines.

p34cdc2 kinase = p34cdc2 kinase activity and tyrosine phosphorylation; assay type: biochemical, human
Experimental: The effects of selected phosphonic acid agents on the p34cdc2-related kinase activity are carried out essentially as described by Bojanowski et al. (1994).
Cytoplasmic and nuclear extractions: 100 million cells (HMVEC-1 or HMEC-d) are washed twice with cold PBS and incubated in hypotonic phosphate buffer for 45 min on ice. The cells are then disrupted with a Dounce homogenizer and nuclei separated from the cytoplasmic fraction by centrifugation and extensive washing with hypotonic buffer. The nuclei are incubated for 30 min in the presence of 350 mM NaCl and the nonsoluble nuclear material removed by ultracentrifugation (20 min at 40000 rpm in TL 100 Beckman ultracentrifuge). The protein concentration are adjusted to 1.5 mg/ml, 20% of glycerol are added and the extracts stored at -20° C. […]
Reactions are stopped by placing the samples on ice and spotting 5 μl of the reaction mixture onto P81 phosphocellulose filters (Whatman). Filters are washed three times in 50 mM phosphoric acid, dried and the radioactivity retained on the filters are determined by liquid scintillation (Beckman).
Western blot: the precipitates are electrophoresed in 12.5% 12×12 cm ready-made polyacrylamide gels (Daichi Co.) and the proteins transferred to Immobilon PVDF membranes (Millipore). […] A Pharmacia LKB image master DTS chromoscan are used for band quantification (Bojanowski et al., 1994).

[5] = test system: microvascular endothelial cell migration; test: Endothelial cell migration in vitro; assay type: cell-based
PKC type I-III = details: Mahoney et al., 1990; read-out: ID50, PKC type I-III activity; cited from earlier work
[6] = test system: angiogenesis in mouse (Matrigel plus bFGF and heparin); details: Pesenti et al. (1992); cited from earlier work
[7] = test system: fetal bovine aortic endothelial cells; details: Takano et al., 1994; cited from earlier work
[8] = test system: tyrosine specific phosphorylation of cellular proteins; details: Ghosh and Miller, 1993; cited from earlier work

Experimental for HMEC-1 cells: Triplicates were carried out for each period of incubation. At the end of each incubation period, the cells were processed through different washings and finally to differential centrifugation. Different cell fractions were transferred to separate scintillation vials, solubilized in a liquid scintillation cocktail and counted in a 2000 CA TRICARB Liquid Scintillation Counter.

With `Cc1ccc(C(=O)Nc2ccc(S(=O)(=O)O)c3cc(S(=O)(=O)O)cc(S(=O)(=O)O)c23)cc1NC(=O)c1cccc(NC(=O)Nc2cccc(C(=O)Nc3cc(C(=O)Nc4ccc(S(=O)(=O)O)c5cc(S(=O)(=O)O)cc(S(=O)(=O)O)c45)ccc3C)c2)c1` [suramin] the “6-day CAM % Inhibition of angiogenesis” value ([1]; 70 nmol or equimolar amount, 6-day CAM) was 64%, the “inhibition of angiogenesis in the 6-day CAM, in words” value ([1]; 6-day CAM, rapidly growing vessels) was “showed antiangiogenic activity; also recorded: clearly affected both the growing and established vascular cells” and the “ID50, dose that produces 50% inhibition of angiogenesis” value ([1]; CAM assay) was 75 nmol. The IC50 [2] was 437 µM, the “reduction in body weight” value (Toxicity in vivo in mice; 150, 75 and 35 μM/kg body weight, injection period) was 10-15% and the histological findings (Toxicity in vivo in mice; after 28-day observation, suramin or equimolar doses) was “dose-related frequency of lipoid degeneration of the zona reticularis of the adrenal gland and vacuolar changes in the proximal convoluted tubules of the renal tubular epithelium”. The mortality (Toxicity in vivo in mice; i.p., every other day, five injections, suramin 150 μM/kg, agents up to 150 μM/kg) was “died before completion of the five injections”, the “body weight, in words” value (Toxicity in vivo in mice; i.p., five injections, 28 days observation) was “body weight stabilized but did not return to normal” and the “effect on cell growth” value (HMEC-1; 50-100 μg/ml) was “stimulatory effect on cell growth”. The “effect on total protein and total DNA” value (HMEC-1; suramin higher than 250 μg/ml, agents lower concentrations) was “significant dose-related reduction in total protein and total DNA”, the “effect on HMEC-1 cell growth” value (HMEC-1; up to 100 μg/ml) was “did not have any significant inhibitory effect” and the “effect on total protein and total DNA” value ([3]; suramin higher than 250 μg/ml) was “significant dose-related reduction in total protein and total DNA”. The “effect on porcine pulmonary artery macrovascular endothelial cell growth” value ([3]; up to 100 μg/ml) was “did not have any significant inhibitory effect”, the “effect on protein synthesis” value [4] was “no change in the rate of protein synthesis until suramin and the cells have been incubated together for at least 24 hr” and the “inhibition of p34cdc2 kinase” value (p34cdc2 kinase) was “inhibits p34cdc2 kinase activity in a dose-related manner”. The “p34cdc2 kinase tyrosine phosphorylation / mobility” value (p34cdc2 kinase; Western blot, anti-phosphotyrosine immunoblot) was “a difference in p34cdc2 kinase tyrosine phosphorylation”, the minimal effective concentration ([5]; Endothelial cell, read-out: concentration inhibiting endothelial cell migration) was over 150 µg/mL and the “inhibition of migration, in words” value ([5]; number of cells migrated and distance traveled) was “significantly inhibited endothelial cell migration”. The “time to plateau of cell incorporation” value (HMEC-1 cells) was “around 24 hr”, the IC50 (PKC type I-III) was 50 µM and the “inhibition of angiogenesis in vivo, in words” value [6] was “effective inhibitor of angiogenesis in vivo”. For the same compound, the “concentration inhibiting plasminogen activator activity induced by bFGF” value [7] was “higher than 250 μg/ml” and the “effect on tyrosine specific phosphorylation” value [8] was “increase the global tyrosine specific phosphorylation of cellular proteins in vivo”.
